Data taken from patent US5068247A, “2-aminopentanoic acid compounds and their use as immunosuppressants” (priority 1989, dated 1991).
Read-outs that look alike come from different tables or passages of the source.

Assays:
[1] = system: human allogenic MLR (human peripheral blood lymphocytes); assay: human allogenic MLR-suppressive activity, 3H-thymidine uptake; type: cell-based; conditions: for suppressive activity in human allogenic MLR (in words): 1 to 0.0001 μg/ml
Description: The human allogenic MLR-suppressive activity was assayed as follows:
Human peripheral blood lymphocytes obtained by Ficoll-Paque density gradient centrifugation of normal human peripheral blood were suspended in the RPMI1640 culture medium supplemented with 10% FCS, placed in a plastic dish, and cultured in an atmosphere of 5% carbon dioxide and 95% air at 37° C. for 2 hours. After termination of culture, the supernatant after gentle pipetting was collected and centrifuged (1000 rpm, for 5 minutes) to obtain plastic-nonadherent cells. The plastic-nonadherent cells were allowed to pass through a nylon-wool column to give nylon-nonadherent cells, and the concentration of the cell suspension was adjusted to 4×10^6 cells/ml by using the RPMI1640 culture medium supplemented with 10% FCS, and used as the responder cell suspension.
The plastic-adherent cells were removed from the plastic dish by vigorous pipetting after addition of phosphate buffered saline (PBS) supplemented with 5% FCS and 0.02% disodium ethylenediaminetetraacetic acid (EDTA). The plastic-adherent cells were treated with 40 μg/ml of mitomycin C at 37° C. for 60 minutes, washed three times, and suspended to the concentration of 4×10^6 cells/ml in the RPMI1640 culture medium supplemented with 10% FCS. The resultant suspension was used as the stimulator cell suspension.
After termination of culture, 37 KBq/well of ^3 H-thymidine was added, and after 18 hours of culture, the cells were harvested by a cell-harvester. The radioactivity incorporated into the cells was measured by a liquid scintillation counter, which was used as an index of blastogenic response of lymphocytes in human allogenic MLR. The suppression of human allogenic MLR was evaluated by calculating the percent suppression by the following formula. [formula]

[2] = system: allo-specific cytotoxic antibody in serum of EL4-immunized BALB/c mice; assay: suppression of allo-specific cytotoxic antibody production induced by allogenic cell immunization of mouse; type: in vivo
Description: Male 5- to 7-week-old BALB/c mice were immunized with leukemia cell EL4 derived from C57BL/6 mice (10^7 cells/mouse, intraperitoneal administration) in the same way as in Experiment Example 9, and the […] Nine to ten days after immunization, a serum was collected from the mice. Fifty μl of the two-fold serial dilution of the serum, 50 μl of a guinea pig complement and EL4 cell suspension labelled with ^51 Cr as the target cell (5×10^4 cells/ml, 100 μl) were together added to a 96-well microtest plate. After incubation at 37° C. for 1 hour, the amount of ^51 Cr released in the supernatant was measured, and the complement-dependent cytotoxicity was calculated by the following formula. [formula]
The value of allo-specific cytotoxic antibody determined as above was expressed by the titer calculated on the basis of the concentration at which the releasing amount of ^51 Cr was 50% of that of ^51 Cr-labelled target cells treated with 0.1 N HCl.

[3] = Homo sapiens, Lymphocyte, 0.0001 μg/ml, Donor C/Donor D, read-out: Suppression
[4] = Homo sapiens, Lymphocyte, 0.001 μg/ml, Donor A/Donor B, read-out: Suppression
[5] = Homo sapiens, Lymphocyte, 0.001 μg/ml, Donor C/Donor D, read-out: Suppression
[6] = Homo sapiens, Lymphocyte, 0.01 μg/ml, Donor A/Donor B, read-out: Suppression
[7] = Homo sapiens, Lymphocyte, 0.01 μg/ml, Donor C/Donor D, read-out: Suppression
[8] = Homo sapiens, Lymphocyte, 0.1 μg/ml, Donor A/Donor B, read-out: Suppression
[9] = Homo sapiens, Lymphocyte, 0.1 μg/ml, Donor C/Donor D, read-out: Suppression
[10] = Homo sapiens, Lymphocyte, 1 μg/ml, Donor A/Donor B, read-out: Suppression
[11] = Homo sapiens, Lymphocyte, 1 μg/ml, Donor C/Donor D, read-out: Suppression
[12] = 0.01 mg/kg/day ip × 5, Table 10A
[13] = 0.03 mg/kg/day ip × 5, Table 10A
[14] = 0.1 mg/kg/day ip × 5, Table 10A
[15] = 0.3 mg/kg/day ip × 5, Table 10A
[16] = 0.3 mg/kg/day po × 5, Table 10B

`CCCCCCC(O)C=CCCCCC=CCC(O)C(O)C(N)(CO)C(=O)O` (stereo not shown) [Example 1] was tested, and the 3H-thymidine uptake ([1]; 0.0001 μg/ml, Donor C/Donor D) was 20334 cpm, the 3H-thymidine uptake ([1]; 0.001 μg/ml, Donor A/Donor B) was 12137 cpm and the 3H-thymidine uptake ([1]; 0.001 μg/ml, Donor C/Donor D) was 15284 cpm. For the same molecule, the 3H-thymidine uptake ([1]; 0.01 μg/ml, Donor A/Donor B) was 7479 cpm, the 3H-thymidine uptake ([1]; 0.01 μg/ml, Donor C/Donor D) was 7232 cpm and the 3H-thymidine uptake ([1]; 0.1 μg/ml, Donor A/Donor B) was 5590 cpm. It also gave a 3H-thymidine uptake ([1]; 0.1 μg/ml, Donor C/Donor D) of 5292 cpm, a 3H-thymidine uptake ([1]; 1 μg/ml, Donor A/Donor B) of 5613 cpm and a 3H-thymidine uptake ([1]; 1 μg/ml, Donor C/Donor D) of 6689 cpm. The “suppressive activity in human allogenic MLR (in words)” value [1] was “exhibited suppressive activity in human allogenic MLR in a concentration-dependent manner”, the inhibition at 0.0001 µg/mL [1, 3] was 1.4% and the inhibition at 0.001 µg/mL [1, 4] was 0%. The inhibition at 0.001 µg/mL [1, 5] was 24.4%, the inhibition at 0.01 µg/mL [1, 6] was 39.6% and the inhibition at 0.01 µg/mL [1, 7] was 65.4%. For the same molecule, the inhibition at 0.1 µg/mL [1, 8] was 56.5%, the inhibition at 0.1 µg/mL [1, 9] was 75.3% and the inhibition at 1 µg/mL [1, 10] was 56.3%. The inhibition at 1 µg/mL [1, 11] was 68.2%.

`CCCCCCCCCCCCCCCC[C@@H](O)[C@H](O)[C@@](N)(CO)C(=O)O` [Example 2] was tested, and the “Allogenic cell-specific antibody in serum, suppression” value [2, 12] was 0%, the “Allogenic cell-specific antibody in serum, titer” value [2, 12] was 119 ± 47 and the “Allogenic cell-specific antibody in serum, suppression” value [2, 13] was 0%. The “Allogenic cell-specific antibody in serum, titer” value [2, 13] was 87 ± 55, the “Allogenic cell-specific antibody in serum, suppression” value [2, 14] was 0% and the “Allogenic cell-specific antibody in serum, titer” value [2, 14] was 89 ± 32. For the same molecule, the “Allogenic cell-specific antibody in serum, suppression” value [2, 15] was 39.9%, the “Allogenic cell-specific antibody in serum, titer” value [2, 15] was 50 ± 48 and the “Allogenic cell-specific antibody in serum, suppression” value [2, 16] was 39.3%. The “Allogenic cell-specific antibody in serum, titer” value [2, 16] was 130 ± 45, the “Allogenic cell-specific antibody in serum, suppression” value ([2]; 1 mg/kg/day ip × 5, Table 10A) was > 80% and the “Allogenic cell-specific antibody in serum, titer” value ([2]; 1 mg/kg/day ip × 5, Table 10A) was < 16. The “Allogenic cell-specific antibody in serum, suppression” value ([2]; 1 mg/kg/day po × 5, Table 10B) was 37.9%, the “Allogenic cell-specific antibody in serum, titer” value ([2]; 1 mg/kg/day po × 5, Table 10B) was 133 ± 50 and the “Allogenic cell-specific antibody in serum, suppression” value ([2]; 3 mg/kg/day ip × 5, Table 10A) was > 80%. For the same molecule, the “Allogenic cell-specific antibody in serum, titer” value ([2]; 3 mg/kg/day ip × 5, Table 10A) was < 16, the “Allogenic cell-specific antibody in serum, suppression” value ([2]; 3 mg/kg/day po × 5, Table 10B) was 58.9% and the “Allogenic cell-specific antibody in serum, titer” value ([2]; 3 mg/kg/day po × 5, Table 10B) was 88 ± 47. For the same molecule, the “Allogenic cell-specific antibody in serum, suppression” value ([2]; 10 mg/kg/day po × 5, Table 10B) was 68.7%, the “Allogenic cell-specific antibody in serum, titer” value ([2]; 10 mg/kg/day po × 5, Table 10B) was 67 ± 16 and the “allo-specific cytotoxic antibody production in serum (in words)” value ([2]; intraperitoneal or oral, Tables 10A to 10D) was “strongly suppresses allo-specific cytotoxic antibody production in serum”. It also gave a 3H-thymidine uptake ([1]; 0.00001 μg/ml, Donor C/Donor D) of 13909 cpm, a 3H-thymidine uptake ([1]; 0.0001 μg/ml, Donor C/Donor D) of 15259 cpm and a 3H-thymidine uptake ([1]; 0.001 μg/ml, Donor A/Donor B) of 9258 cpm. For the same molecule, the 3H-thymidine uptake ([1]; 0.001 μg/ml, Donor C/Donor D) was 15503 cpm, the 3H-thymidine uptake ([1]; 0.01 μg/ml, Donor A/Donor B) was 8119 cpm and the 3H-thymidine uptake ([1]; 0.01 μg/ml, Donor C/Donor D) was 11263 cpm. For the same molecule, the 3H-thymidine uptake ([1]; 0.1 μg/ml, Donor A/Donor B) was 4624 cpm, the 3H-thymidine uptake ([1]; 0.1 μg/ml, Donor C/Donor D) was 7300 cpm and the 3H-thymidine uptake ([1]; 1 μg/ml, Donor A/Donor B) was 7130 cpm. For the same molecule, the 3H-thymidine uptake ([1]; 1 μg/ml, Donor C/Donor D) was 6583 cpm, the “suppressive activity in human allogenic MLR (in words)” value [1] was “exhibited suppressive activity in human allogenic MLR in a concentration-dependent manner” and the inhibition at 10 pg/mL ([1]; Homo sapiens, Lymphocyte, read-out: Suppression, 0.00001 μg/ml, Donor C/Donor D) was 31.4%. For the same molecule, the inhibition at 0.0001 µg/mL ([1]; Homo sapiens, Lymphocyte, read-out: Suppression, 0.0001 μg/ml, Donor C/Donor D) was 24.5%, the inhibition at 0.001 µg/mL ([1]; Homo sapiens, Lymphocyte, read-out: Suppression, 0.001 μg/ml, Donor A/Donor B) was 23.6% and the inhibition at 0.001 µg/mL ([1]; Homo sapiens, Lymphocyte, read-out: Suppression, 0.001 μg/ml, Donor C/Donor D) was 23.2%. The inhibition at 0.01 µg/mL ([1]; Homo sapiens, Lymphocyte, read-out: Suppression, 0.01 μg/ml, Donor A/Donor B) was 33.8%, the inhibition at 0.01 µg/mL ([1]; Homo sapiens, Lymphocyte, read-out: Suppression, 0.01 μg/ml, Donor C/Donor D) was 44.9% and the inhibition at 0.1 µg/mL ([1]; Homo sapiens, Lymphocyte, read-out: Suppression, 0.1 μg/ml, Donor A/Donor B) was 65.2%. The inhibition at 0.1 µg/mL ([1]; Homo sapiens, Lymphocyte, read-out: Suppression, 0.1 μg/ml, Donor C/Donor D) was 65%, the inhibition at 1 µg/mL ([1]; Homo sapiens, Lymphocyte, read-out: Suppression, 1 μg/ml, Donor A/Donor B) was 42.7% and the inhibition at 1 µg/mL ([1]; Homo sapiens, Lymphocyte, read-out: Suppression, 1 μg/ml, Donor C/Donor D) was 68.7%.

For `CCCCCCC1(CCCCCC/C=C/C[C@@H](O)[C@H](O)[C@@](N)(CO)C(=O)O)SCCS1` [Example 3], the 3H-thymidine uptake ([1]; 0.0001 μg/ml, Donor A/Donor B) was 10700 cpm, the 3H-thymidine uptake ([1]; 0.0001 μg/ml, Donor C/Donor D) was 18512 cpm and the 3H-thymidine uptake ([1]; 0.001 μg/ml, Donor A/Donor B) was 7285 cpm. The 3H-thymidine uptake ([1]; 0.001 μg/ml, Donor C/Donor D) was 17138 cpm, the 3H-thymidine uptake ([1]; 0.01 μg/ml, Donor A/Donor B) was 7790 cpm and the 3H-thymidine uptake ([1]; 0.01 μg/ml, Donor C/Donor D) was 15337 cpm. For the same molecule, the 3H-thymidine uptake ([1]; 0.1 μg/ml, Donor A/Donor B) was 6582 cpm, the 3H-thymidine uptake ([1]; 0.1 μg/ml, Donor C/Donor D) was 8187 cpm and the 3H-thymidine uptake ([1]; 1 μg/ml, Donor A/Donor B) was 5909 cpm. For the same molecule, the 3H-thymidine uptake ([1]; 1 μg/ml, Donor C/Donor D) was 5143 cpm, the “suppressive activity in human allogenic MLR (in words)” value [1] was “exhibited suppressive activity in human allogenic MLR in a concentration-dependent manner” and the inhibition at 0.0001 µg/mL ([1]; Homo sapiens, Lymphocyte, 0.0001 μg/ml, Donor A/Donor B, read-out: Suppression) was 10.7%. The inhibition at 0.0001 µg/mL [1, 3] was 7.9%, the inhibition at 0.001 µg/mL [1, 4] was 41.3% and the inhibition at 0.001 µg/mL [1, 5] was 14.9%. The inhibition at 0.01 µg/mL [1, 6] was 36.8%, the inhibition at 0.01 µg/mL [1, 7] was 24.1% and the inhibition at 0.1 µg/mL [1, 8] was 47.6%. The inhibition at 0.1 µg/mL [1, 9] was 60.5%, the inhibition at 1 µg/mL [1, 10] was 53.7% and the inhibition at 1 µg/mL [1, 11] was 76%.
